Measured values published in US6203776A, “Method for identifying adrenergic receptor antagonists having good tolerability” (University Technology Corporation, priority 1998, dated 2001).

Experiments:
human β1 or β2 receptors = test: Inverse agonist activity: inhibition of basal adenylyl cyclase activity (cAMP generation) in Sf9 membranes; format: biochemical; conditions: concentration 10×Ki for the β2 receptor
Protocol: Sf9 cells were transfected with a baculovirus expression system coding for human β1 or β2 receptors as described in Chidiac et al., Molec.
Adenylyl cyclase activity of Sf9 membranes was measured as described in Chidiac et al., Molec. […] The inhibition of basal cAMP generation in this system is a measure of inverse agonism.

[1] = tested on: β1, β2 and α1 adrenergic receptors; conditions: Yoshikawa et al., Eur. Heart J. 1996; cited from earlier work

CC(C)(Cc1c[nH]c2ccccc12)NCC(O)COc1ccccc1C#N (centres unmarked) [bucindolol]
rank order of inverse agonist activity (FIG. 1B) (human β1 or β2 receptors): metoprolol>propranolol≥carvedilol>xamoterol>bucindolol | adrenergic receptor subtype selectivity / rank order of potency [1]: nonselective for β1 and β2 adrenergic receptors
